How the values were obtained:
[1] = compound: CC(=O)O[C@H]1C(=O)[C@@]2(C)[C@H]([C@H](OC(=O)c3ccccc3)[C@]3(O)C[C@H](OC(=O)[C@H](O)[C@@H](NC(=O)c4ccccc4)c4ccccc4)C(C)=C1C3(C)C)[C@]1(OC(C)=O)CO[C@@H]1C[C@@H]2O [Paclitaxel]
[2] = compound: CC(C)NC[C@@H](C(=O)N1CCN(c2ncnc3c2[C@H](C)C[C@H]3O)CC1)c1ccc(Cl)cc1 [Ipatasertib/GDC0068]
[3] = compound: CCNC(=O)c1noc(-c2cc(C(C)C)c(O)cc2O)c1-c1ccc(CN2CCOCC2)cc1 [Luminespib/NVP-AUY922]
[4] = compound: CN(C)C/C=C/C(=O)Nc1ccc(O[C@@H]2CCC[C@@H](Nc3ncc(Cl)c(-c4c[nH]c5ccccc45)n3)C2)cc1 [BSJ-01-175]
[5] = compound: CN(C)CC[C@H](CSc1ccccc1)Nc1ccc(S(=O)(=O)NC(=O)c2ccc(N3CCN(Cc4ccccc4-c4ccc(Cl)cc4)CC3)cc2)cc1[N+](=O)[O-] [ABT-737]
[6] = compound: T1, CN1CC[C@H](c2c(O)cc(O)c3c(=O)cc(-c4ccccc4Cl)oc23)[C@H](O)C1 [Flavopiridol]
[7] = compound: COc1cccc2c1C(=O)c1c(O)c3c(c(O)c1C2=O)C[C@@](O)(C(=O)CO)C[C@@H]3O[C@H]1C[C@H](N)[C@H](O)[C@H](C)O1 [Doxorubicin]
[8] = compound: Cc1nc(-c2cn3c(n2)-c2ccc(-c4cnn(C(C)(C)C(N)=O)c4)cc2OCC3)n(C(C)C)n1 [Taselisib/GDC0032]
[9] = compound: O=C(c1cc(Cc2n[nH]c(=O)c3ccccc23)ccc1F)N1CCN(C(=O)C2CC2)CC1 [Olaparib/AZD2281]
[10] = compound: C=CC(=O)Nc1ccc(C(=O)Nc2[nH]nc3c2CN(C(=O)N[C@H](CN(C)C)c2ccccc2)C3(C)C)cc1 [YKL-5-124]; assay: GR value, 72 h; higher = faster growth (1 = untreated, <0 = killing);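 further: breast cancer and non-malignant breast epithelial lines, nine half-log doses, viable cells counted by Hoechst and LIVE/DEAD dye imaging versus time-zero plates and DMSO controls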
[11] = compound: CC(=O)c1c(C)c2cnc(Nc3ccc(N4CCN(CCOCCOCCOCCNC(=O)COc5cccc6c5C(=O)N(C5CCC(=O)NC5=O)C6=O)CC4)cn3)nc2n(C2CCCC2)c1=O [BSJ-03-123]; assay: as above
[12] = compound: CC(=O)c1c(C)c2cnc(Nc3ccc(N4CCNCC4)cn3)nc2n(C2CCCC2)c1=O; assay: as above
[13] = compound: CCN1CCN(Cc2ccc(Nc3ncc(F)c(-c4cc(F)c5nc(C)n(C(C)C)c5c4)n3)nc2)CC1; assay: as above
[14] = compound: CCc1cnn2c(NCc3ccc[n+]([O-])c3)cc(N3CCCC[C@H]3CCO)nc12; assay: as above
[15] = compound: CN(C)C(=O)c1cc2cnc(Nc3ccc(N4CCNCC4)cn3)nc2n1C1CCCC1 [LEE011/Ribociclib]; assay: as above
[16] = compound: CN(C)C/C=C/C(=O)Nc1ccc(C(=O)N2CCC[C@@H](Nc3ncc(Cl)c(-c4c[nH]c5ccccc45)n3)C2)cc1 [THZ531]; assay: as above
[17] = compound: T1, Flavopiridol; assay: as above
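Wherever GR50, 72 h is given: breast cancer and non-malignant breast epithelial cell lines, Deep Dye Drop or Dye Drop imaging, nine half-log doses, GR normalized to time-zero plates and DMSO-only controls.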

HCC1937
GR50, 72 h [1]: 0.00245 µM
GR50, 72 h [2]: > 10 µM
GR50, 72 h [3]: 0.0114 µM
GR50, 72 h [4]: 0.302 µM
GR50, 72 h [5]: 5.77 µM
GR50, 72 h [6]: 0.168 µM
GR50, 72 h [7]: 0.0128 µM
GR50, 72 h [8]: 1.23 µM
GR50, 72 h [9]: > 10 µM
GR value ([10]; 0.001 µM): 0.676 GR
GR value ([10]; 0.003162 µM): 0.451 GR
GR value ([10]; 0.01 µM): 0.249 GR
GR value ([10]; 0.03162 µM): 0.165 GR
GR value ([10]; 0.1 µM): 0.0669 GR
GR value ([10]; 0.3162 µM): 0.0473 GR
GR value ([10]; 1 µM): -0.0273 GR
GR value ([10]; 3.162 µM): -0.052 GR
GR value ([10]; 10 µM): -0.196 GR
GR value ([11]; 0.001 µM): 1.11 GR
GR value ([11]; 0.003162 µM): 1.04 GR
GR value ([11]; 0.01 µM): 0.933 GR
GR value ([11]; 0.03162 µM): 1.05 GR
GR value ([11]; 0.1 µM): 0.961 GR
GR value ([11]; 0.3162 µM): 1.03 GR
GR value ([11]; 1 µM): 0.918 GR
GR value ([11]; 3.162 µM): 0.977 GR
GR value ([11]; 10 µM): 0.525 GR
GR value ([12]; 0.0003162 µM): 1.04 GR
GR value ([12]; 0.001 µM): 1.1 GR
GR value ([12]; 0.003162 µM): 1.13 GR
GR value ([12]; 0.01 µM): 1.1 GR
GR value ([12]; 0.03162 µM): 1.06 GR
GR value ([12]; 0.1 µM): 1.03 GR
GR value ([12]; 0.3162 µM): 0.99 GR
GR value ([12]; 1 µM): 1.07 GR
GR value ([12]; 3.162 µM): 1.07 GR
GR value ([13]; 0.001 µM): 1.03 GR
GR value ([13]; 0.003162 µM): 1.04 GR
GR value ([13]; 0.01 µM): 1.06 GR
GR value ([13]; 0.03162 µM): 1.08 GR
GR value ([13]; 0.1 µM): 0.973 GR
GR value ([13]; 0.3162 µM): 0.941 GR
GR value ([13]; 1 µM): 0.81 GR
GR value ([13]; 3.162 µM): 0.598 GR
GR value ([13]; 10 µM): 0.321 GR
GR value ([14]; 0.0001 µM): 1.02 GR
GR value ([14]; 0.0003162 µM): 1.03 GR
GR value ([14]; 0.001 µM): 1.06 GR
GR value ([14]; 0.003162 µM): 1.1 GR
GR value ([14]; 0.01 µM): 0.983 GR
GR value ([14]; 0.03162 µM): 0.0186 GR
GR value ([14]; 0.1 µM): -0.185 GR
GR value ([14]; 0.3162 µM): -0.211 GR
GR value ([14]; 1 µM): -0.206 GR
GR value ([15]; 0.001 µM): 0.945 GR
GR value ([15]; 0.003162 µM): 0.893 GR
GR value ([15]; 0.01 µM): 1.14 GR
GR value ([15]; 0.03162 µM): 1.02 GR
GR value ([15]; 0.1 µM): 1 GR
GR value ([15]; 0.3162 µM): 0.875 GR
GR value ([15]; 1 µM): 0.964 GR
GR value ([15]; 3.162 µM): 1.02 GR
GR value ([15]; 10 µM): 1.11 GR
GR value ([16]; 0.0001 µM): 0.85 GR
GR value ([16]; 0.0003162 µM): 1 GR
GR value ([16]; 0.001 µM): 0.958 GR
GR value ([16]; 0.003162 µM): 1.01 GR
GR value ([16]; 0.01 µM): 1.09 GR
GR value ([16]; 0.03162 µM): 1.16 GR
GR value ([16]; 0.1 µM): 0.954 GR
GR value ([16]; 0.3162 µM): 0.219 GR
GR value ([16]; 1 µM): -0.302 GR
GR value ([17]; 0.0001 µM): 1.08 GR
GR value ([17]; 0.0003162 µM): 1.02 GR
GR value ([17]; 0.001 µM): 0.946 GR
GR value ([17]; 0.003162 µM): 1.01 GR
GR value ([17]; 0.01 µM): 0.918 GR
GR value ([17]; 0.03162 µM): 1.01 GR
GR value ([17]; 0.1 µM): 0.691 GR
GR value ([17]; 0.3162 µM): 0.19 GR
GR value ([17]; 1 µM): -0.211 GR

MDAMB436
GR50, 72 h [1]: 0.00371 µM
GR50, 72 h [2]: > 10 µM
GR50, 72 h [3]: 0.00391 µM
GR50, 72 h [4]: 0.00965 µM
GR50, 72 h [5]: > 10 µM
GR50, 72 h [6]: 0.159 µM
GR50, 72 h [7]: 0.00761 µM
GR50, 72 h [8]: 4.66 µM
GR50, 72 h [9]: 1.53 µM
GR value ([10]; 0.001 µM): 0.84 GR
GR value ([10]; 0.003162 µM): 0.563 GR
GR value ([10]; 0.01 µM): 0.533 GR
GR value ([10]; 0.03162 µM): 0.432 GR
GR value ([10]; 0.1 µM): 0.409 GR
GR value ([10]; 0.3162 µM): 0.3 GR
GR value ([10]; 1 µM): 0.405 GR
GR value ([10]; 3.162 µM): 0.291 GR
GR value ([10]; 10 µM): -0.0192 GR
GR value ([11]; 0.001 µM): 1.1 GR
GR value ([11]; 0.003162 µM): 1.07 GR
GR value ([11]; 0.01 µM): 1.02 GR
GR value ([11]; 0.03162 µM): 1.03 GR
GR value ([11]; 0.1 µM): 1.11 GR
GR value ([11]; 0.3162 µM): 0.971 GR
GR value ([11]; 1 µM): 0.999 GR
GR value ([11]; 3.162 µM): 0.966 GR
GR value ([11]; 10 µM): -0.0484 GR
GR value ([12]; 0.0003162 µM): 1.06 GR
GR value ([12]; 0.001 µM): 1.04 GR
GR value ([12]; 0.003162 µM): 1.03 GR
GR value ([12]; 0.01 µM): 1.04 GR
GR value ([12]; 0.03162 µM): 0.977 GR
GR value ([12]; 0.1 µM): 1.03 GR
GR value ([12]; 0.3162 µM): 1.01 GR
GR value ([12]; 1 µM): 1.09 GR
GR value ([12]; 3.162 µM): 1.02 GR
GR value ([13]; 0.001 µM): 1.04 GR
GR value ([13]; 0.003162 µM): 1 GR
GR value ([13]; 0.01 µM): 1.04 GR
GR value ([13]; 0.03162 µM): 1.03 GR
GR value ([13]; 0.1 µM): 1.02 GR
GR value ([13]; 0.3162 µM): 1 GR
GR value ([13]; 1 µM): 0.719 GR
GR value ([13]; 3.162 µM): 0.337 GR
GR value ([13]; 10 µM): -0.322 GR
GR value ([14]; 0.0001 µM): 0.969 GR
GR value ([14]; 0.0003162 µM): 1.01 GR
GR value ([14]; 0.001 µM): 1.07 GR
GR value ([14]; 0.003162 µM): 1.11 GR
GR value ([14]; 0.01 µM): 0.868 GR
GR value ([14]; 0.03162 µM): -0.101 GR
GR value ([14]; 0.1 µM): -0.124 GR
GR value ([14]; 0.3162 µM): -0.0986 GR
GR value ([14]; 1 µM): -0.15 GR
GR value ([15]; 0.001 µM): 0.982 GR
GR value ([15]; 0.003162 µM): 1.05 GR
GR value ([15]; 0.01 µM): 1.06 GR
GR value ([15]; 0.03162 µM): 1.08 GR
GR value ([15]; 0.1 µM): 0.913 GR
GR value ([15]; 0.3162 µM): 1.03 GR
GR value ([15]; 1 µM): 0.95 GR
GR value ([15]; 3.162 µM): 0.982 GR
GR value ([15]; 10 µM): 0.951 GR
GR value ([16]; 0.0001 µM): 1.1 GR
GR value ([16]; 0.0003162 µM): 1.02 GR
GR value ([16]; 0.001 µM): 0.944 GR
GR value ([16]; 0.003162 µM): 1.07 GR
GR value ([16]; 0.01 µM): 1.12 GR
GR value ([16]; 0.03162 µM): 1.01 GR
GR value ([16]; 0.1 µM): 0.676 GR
GR value ([16]; 0.3162 µM): 0.328 GR
GR value ([16]; 1 µM): 0.0201 GR
GR value ([17]; 0.0001 µM): 0.988 GR
GR value ([17]; 0.0003162 µM): 0.97 GR
GR value ([17]; 0.001 µM): 0.97 GR
GR value ([17]; 0.003162 µM): 0.889 GR
GR value ([17]; 0.01 µM): 1.01 GR
GR value ([17]; 0.03162 µM): 0.905 GR
GR value ([17]; 0.1 µM): 0.701 GR
GR value ([17]; 0.3162 µM): 0.125 GR
GR value ([17]; 1 µM): -0.0603 GR
